Results: the NIST ThermoML archive (doi:10.1021/acs.jced.5b00197)
± gives the expanded uncertainty stated by the source.

Experiment: refractive index (other wavelength) (dimensionless); xn = mol fraction of the nth substance listed
Details: 94.64 kPa, Liquid, Standard Abbe refractometry

CC(=O)O [acetic acid] + O
refractive index
Details	Wavelength=404.7 nm	Wavelength=435.8 nm	Wavelength=486.1 nm	Wavelength=546.1 nm	Wavelength=587.6 nm	Wavelength=632.8 nm	Wavelength=644 nm	Wavelength=706.5 nm
293.15 K, x1 = 0.0322	1.35074 ± 0.001	1.34808 ± 0.001	1.34498 ± 0.001	1.34229 ± 0.001	1.34084 ± 0.001	1.3395 ± 0.001	1.33919 ± 0.001	1.33766 ± 0.001
293.15 K, x1 = 0.0697	1.35808 ± 0.001	1.35532 ± 0.001	1.35218 ± 0.001	1.3494 ± 0.001	1.34797 ± 0.001	1.34664 ± 0.001	1.34631 ± 0.001	1.34473 ± 0.001
293.15 K, x1 = 0.114	1.36535 ± 0.00097	1.36252 ± 0.00097	1.35924 ± 0.00096	1.35643 ± 0.00096	1.35495 ± 0.00096	1.35355 ± 0.00096	1.35322 ± 0.00097	1.35158 ± 0.00096
293.15 K, x1 = 0.167	1.37162 ± 0.00092	1.36869 ± 0.00092	1.36533 ± 0.00092	1.36247 ± 0.00092	1.36095 ± 0.00092	1.35953 ± 0.00092	1.35919 ± 0.00092	1.35756 ± 0.00092
293.15 K, x1 = 0.231	1.37678 ± 0.00087	1.3738 ± 0.00087	1.37034 ± 0.00087	1.36744 ± 0.00087	1.36589 ± 0.00087	1.36444 ± 0.00086	1.36411 ± 0.00087	1.36247 ± 0.00087
293.15 K, x1 = 0.31	1.38181 ± 0.0008	1.37874 ± 0.0008	1.37522 ± 0.0008	1.37227 ± 0.0008	1.37068 ± 0.0008	1.36921 ± 0.0008	1.36888 ± 0.00081	1.36724 ± 0.0008
293.15 K, x1 = 0.412	1.38536 ± 0.00072	1.38226 ± 0.00072	1.37869 ± 0.00072	1.37571 ± 0.00072	1.37412 ± 0.00072	1.37264 ± 0.00072	1.3723 ± 0.00072	1.37065 ± 0.00072
293.15 K, x1 = 0.545	1.38847 ± 0.00062	1.3853 ± 0.00062	1.38169 ± 0.00062	1.37868 ± 0.00062	1.37709 ± 0.00062	1.37561 ± 0.00062	1.37526 ± 0.00062	1.37359 ± 0.00062
293.15 K, x1 = 0.629	1.38867 ± 0.00056	1.3855 ± 0.00056	1.38192 ± 0.00056	1.37889 ± 0.00056	1.3773 ± 0.00056	1.37583 ± 0.00056	1.37548 ± 0.00056	1.37381 ± 0.00056
293.15 K, x1 = 0.729	1.38865 ± 0.0005	1.38547 ± 0.00049	1.38189 ± 0.00049	1.37886 ± 0.00049	1.37727 ± 0.00049	1.37581 ± 0.00049	1.37547 ± 0.00049	1.37382 ± 0.00049
293.15 K, x1 = 0.85	1.38695 ± 0.00043	1.38381 ± 0.00043	1.38021 ± 0.00042	1.37723 ± 0.00042	1.37565 ± 0.00042	1.37419 ± 0.00042	1.37386 ± 0.00042	1.37224 ± 0.00042
293.15 K, x1 = 1	1.38345 ± 0.00037	1.38034 ± 0.00037	1.37681 ± 0.00037	1.37386 ± 0.00036	1.3723 ± 0.00036	1.37087 ± 0.00036	1.37055 ± 0.00036	1.36896 ± 0.00036
298.15 K, x1 = 0.0322	1.34997 ± 0.001	1.34733 ± 0.001	1.34424 ± 0.001	1.34156 ± 0.001	1.34012 ± 0.001	1.33879 ± 0.001	1.33848 ± 0.001	1.33695 ± 0.001
298.15 K, x1 = 0.0697	1.35708 ± 0.001	1.35435 ± 0.001	1.35121 ± 0.001	1.34845 ± 0.001	1.347 ± 0.001	1.34567 ± 0.001	1.34535 ± 0.001	1.34377 ± 0.001
298.15 K, x1 = 0.114	1.36413 ± 0.00097	1.36131 ± 0.00097	1.35805 ± 0.00096	1.35525 ± 0.00096	1.35378 ± 0.00096	1.35239 ± 0.00096	1.35206 ± 0.00097	1.35044 ± 0.00096
298.15 K, x1 = 0.167	1.37026 ± 0.00092	1.36733 ± 0.00092	1.36401 ± 0.00092	1.36114 ± 0.00092	1.35963 ± 0.00092	1.35823 ± 0.00092	1.3579 ± 0.00092	1.35625 ± 0.00092
298.15 K, x1 = 0.231	1.37523 ± 0.00087	1.37226 ± 0.00087	1.36885 ± 0.00087	1.36595 ± 0.00087	1.36441 ± 0.00087	1.36298 ± 0.00087	1.36265 ± 0.00087	1.36102 ± 0.00087
298.15 K, x1 = 0.31	1.38012 ± 0.0008	1.37707 ± 0.0008	1.37358 ± 0.0008	1.37063 ± 0.0008	1.36906 ± 0.0008	1.36762 ± 0.0008	1.36728 ± 0.0008	1.36564 ± 0.0008
298.15 K, x1 = 0.412	1.38357 ± 0.00072	1.38048 ± 0.00072	1.37695 ± 0.00072	1.37398 ± 0.00072	1.37239 ± 0.00072	1.37092 ± 0.00072	1.37059 ± 0.00072	1.36894 ± 0.00072
298.15 K, x1 = 0.545	1.38656 ± 0.00062	1.38342 ± 0.00062	1.37983 ± 0.00062	1.37683 ± 0.00062	1.37525 ± 0.00062	1.37378 ± 0.00062	1.37344 ± 0.00062	1.37178 ± 0.00062
298.15 K, x1 = 0.629	1.38681 ± 0.00056	1.38367 ± 0.00056	1.38008 ± 0.00056	1.37709 ± 0.00056	1.37551 ± 0.00056	1.37404 ± 0.00056	1.3737 ± 0.00056	1.37205 ± 0.00056
298.15 K, x1 = 0.729	1.38668 ± 0.0005	1.38352 ± 0.00049	1.37994 ± 0.00049	1.37695 ± 0.00049	1.37536 ± 0.00049	1.3739 ± 0.00049	1.37357 ± 0.00049	1.37193 ± 0.00049
298.15 K, x1 = 0.85	1.38488 ± 0.00043	1.38174 ± 0.00043	1.37819 ± 0.00042	1.37522 ± 0.00042	1.37365 ± 0.00042	1.37221 ± 0.00042	1.37188 ± 0.00042	1.37027 ± 0.00042
298.15 K, x1 = 1	1.38126 ± 0.00037	1.37816 ± 0.00037	1.37466 ± 0.00037	1.37174 ± 0.00036	1.37018 ± 0.00036	1.36876 ± 0.00036	1.36844 ± 0.00036	1.36686 ± 0.00036
303.15 K, x1 = 0.0322	1.34916 ± 0.001	1.34654 ± 0.001	1.34343 ± 0.001	1.34077 ± 0.001	1.33932 ± 0.001	1.338 ± 0.001	1.3377 ± 0.001	1.3362 ± 0.001
303.15 K, x1 = 0.0697	1.35605 ± 0.001	1.35332 ± 0.001	1.35017 ± 0.001	1.34743 ± 0.001	1.34598 ± 0.001	1.34464 ± 0.001	1.34432 ± 0.001	1.34275 ± 0.001
303.15 K, x1 = 0.114	1.36289 ± 0.00097	1.36008 ± 0.00097	1.35684 ± 0.00096	1.35405 ± 0.00096	1.35256 ± 0.00096	1.35117 ± 0.00096	1.35085 ± 0.00097	1.34926 ± 0.00096
303.15 K, x1 = 0.167	1.36886 ± 0.00092	1.36596 ± 0.00092	1.36261 ± 0.00092	1.35979 ± 0.00092	1.35827 ± 0.00092	1.35686 ± 0.00092	1.35653 ± 0.00092	1.35492 ± 0.00092
303.15 K, x1 = 0.231	1.37369 ± 0.00087	1.37074 ± 0.00087	1.36734 ± 0.00087	1.36446 ± 0.00087	1.36293 ± 0.00087	1.36151 ± 0.00086	1.36118 ± 0.00087	1.35956 ± 0.00087
303.15 K, x1 = 0.31	1.37842 ± 0.0008	1.37539 ± 0.0008	1.37192 ± 0.0008	1.36899 ± 0.0008	1.36742 ± 0.0008	1.36598 ± 0.0008	1.36565 ± 0.00081	1.36402 ± 0.0008
303.15 K, x1 = 0.412	1.38176 ± 0.00072	1.37869 ± 0.00072	1.37516 ± 0.00072	1.37223 ± 0.00072	1.37064 ± 0.00072	1.36917 ± 0.00072	1.36884 ± 0.00072	1.36722 ± 0.00072
303.15 K, x1 = 0.545	1.38463 ± 0.00062	1.3815 ± 0.00062	1.37794 ± 0.00062	1.37497 ± 0.00062	1.37337 ± 0.00062	1.3719 ± 0.00062	1.37157 ± 0.00062	1.36995 ± 0.00062
303.15 K, x1 = 0.629	1.38481 ± 0.00056	1.38167 ± 0.00056	1.37813 ± 0.00056	1.37513 ± 0.00056	1.37355 ± 0.00056	1.3721 ± 0.00056	1.37176 ± 0.00056	1.37013 ± 0.00056
303.15 K, x1 = 0.729	1.38467 ± 0.0005	1.38153 ± 0.00049	1.37797 ± 0.00049	1.375 ± 0.00049	1.37341 ± 0.00049	1.37196 ± 0.00049	1.37163 ± 0.00049	1.37002 ± 0.00049
303.15 K, x1 = 0.85	1.38283 ± 0.00043	1.37972 ± 0.00043	1.37618 ± 0.00042	1.37323 ± 0.00042	1.37166 ± 0.00042	1.37023 ± 0.00042	1.3699 ± 0.00042	1.36831 ± 0.00042
303.15 K, x1 = 1	1.37917 ± 0.00037	1.37611 ± 0.00037	1.37261 ± 0.00037	1.36968 ± 0.00036	1.36815 ± 0.00036	1.36675 ± 0.00036	1.36643 ± 0.00036	1.36485 ± 0.00036
